Experimental data published in patent publication US10131679B2, “Substituted dihydropyrrolopyrazole compound” (UBE INDUSTRIES, LTD., priority 2014, dated 2018).

Key:
PAK4 = target: T1, PAK4 (Homo sapiens, UniProt O96013); assay: PAK4 enzyme inhibition test; assay type: biochemical; details: Ki=IC50/(1+S/Km); 33P bound to MBP, [γ-33P]ATP, 30° C. for 20 minutes; read-out: Ki value of PAK4 inhibitory activity
T1 construct: purchased Invitrogen Corp. PV4212
How it was run: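 Radiometric assay: PAK4 with MBP substrate and 40 μM [γ-^33P]ATP solution in Tris pH 7.5 buffer with MgCl2, DTT, EGTA, reacted 20 min at 30 °C. TCA-precipitated, washed ^33P-MBP counted by scintillation. IC50 from inhibition of ^33P incorporation; Ki = IC50/(1+S/Km).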

[1] = tested on: mouse imiquimod-induced psoriasis model; assay: Ear thickening suppression test using mouse imiquimod-induced psoriasis model; assay type: in vivo; details: topical, 120 h, thickness measured on day 5, BALB/c mice, read-out: rate of inhibition of increase in right auricle thickness; for inhibition in vivo at 1 %: application of a 1% solution in methanol for 4 days; for inhibition in vivo at 0.01 %: application of a 0.01% methanol solution for 4 days
How it was run: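 Female BALB/c mice received test compound topically or orally, then 5 mg imiquimod cream (5%) on the right auricle 60 minutes later, daily for 4 days. Ear thickness was measured on day 5. Inhibition (%) of thickening was calculated relative to the solvent group, taken as 100%.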

CDK2 = target: T2, CDK2 (Homo sapiens, UniProt P24941); assay: CDK2 enzyme inhibition test; assay type: biochemical; details: Ki=IC50/(1+S/Km); 33P bound to MBP, [γ-33P]ATP, 30° C. for 20 minutes; read-out: Ki value of CDK2 inhibitory activity
T2 construct: purchased Invitrogen Corp. PV3267
How it was run: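 Commercial CDK2 with MBP substrate and [γ-33P]ATP (500 μM solution, before mixing) in HEPES pH 7.4 buffer with DTT, Triton X-100 and MgCl2; 20 min at 30 °C. TCA-precipitated 33P-MBP counted by liquid scintillation; IC50 from inhibition of 33P incorporation, Ki = IC50/(1+S/Km).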

T1 sequence (O96013 whole entry): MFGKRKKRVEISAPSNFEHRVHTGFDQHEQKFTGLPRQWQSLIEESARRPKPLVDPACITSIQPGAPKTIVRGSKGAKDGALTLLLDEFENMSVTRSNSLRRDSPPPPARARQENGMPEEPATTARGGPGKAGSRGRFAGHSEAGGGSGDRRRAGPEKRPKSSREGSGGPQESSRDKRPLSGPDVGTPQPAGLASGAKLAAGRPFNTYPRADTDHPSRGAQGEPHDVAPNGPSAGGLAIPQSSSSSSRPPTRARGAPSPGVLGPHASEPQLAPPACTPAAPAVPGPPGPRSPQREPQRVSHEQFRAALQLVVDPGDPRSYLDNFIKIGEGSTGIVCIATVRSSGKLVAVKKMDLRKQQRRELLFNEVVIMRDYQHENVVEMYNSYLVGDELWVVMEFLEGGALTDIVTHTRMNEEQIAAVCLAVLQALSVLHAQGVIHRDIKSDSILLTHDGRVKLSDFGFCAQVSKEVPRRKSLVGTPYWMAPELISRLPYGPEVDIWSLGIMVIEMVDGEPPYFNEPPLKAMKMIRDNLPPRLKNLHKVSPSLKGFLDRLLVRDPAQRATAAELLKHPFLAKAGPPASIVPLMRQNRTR

How did the Ki (PAK4) turn out when `CC1(C)c2[nH]nc(NC(=O)C3([Si](C)(C)C)CCC3)c2CN1C(=O)N[C@H](CO)c1ccccc1` [IV-114, (S)—N-(2-Hydroxy-1-phenylethyl)-6,6-dimethyl-3-[1-(trimethylsilyl)cyclobutanecarboxamido]-4,6-dihydropyrrolo[3,4-c]pyrazole-5(1H)-carboxamide] was run?
The Ki was no less than 500 nM.

What about the inhibition in vivo at 1 % [1] of the same compound?
The inhibition in vivo at 1 % was no less than 50%.

What about the Ki (CDK2) of the same compound?
Its Ki is no less than 1000 nM.

For `CC(C)(CO)C(NC(=O)N1Cc2c(NC(=O)C3([Si](C)(C)C)CCC3)n[nH]c2C1(C)C)c1ccccc1` (single isomer, unassigned; (-)) [IV-673, (−)-N-(3-Hydroxy-2,2-dimethyl-1-phenylpropyl)-6,6-dimethyl-3-[1-(trimethylsilyl)cyclobutanecarboxamido]-4,6-dihydropyrrolo[3,4-c]pyrazole-5(1H)-carboxamide], which Ki (PAK4) is on record?
The Ki was no less than 500 nM.

What about the inhibition in vivo at 0.01 % [1] of the same compound?
Its inhibition in vivo at 0.01 % is no less than 50%.

`CO[C@@H](C(=O)N1Cc2c(NC(=O)C3([Si](C)(C)C)CCC3)n[nH]c2C1(C)C)c1ccccc1F` [IV-1383, (R)—N-{5-[2-(2-Fluorophenyl)-2-methoxyacetyl]-6,6-dimethyl-1,4,5,6-tetrahydropyrrolo[3,4-c]pyrazol-3-yl}-1-(trimethylsilyl)cyclobutanecarboxamide] was tested. Which Ki (PAK4) did it give?
The Ki was no less than 500 nM.

And the inhibition in vivo at 0.01 % [1]?
Its inhibition in vivo at 0.01 % is no less than 50%.

Which Ki (PAK4) does the source give for `CC1(C)c2[nH]nc(NC(=O)C3([Si](C)(C)C)CCC3)c2CN1C(=O)N[C@H](CCO)c1ccccc1` [IV-227, (R)—N-(3-Hydroxy-1-phenylpropyl)-6,6-dimethyl-3-[1-(trimethylsilyl)cyclobutanecarboxamido]-4,6-dihydropyrrolo[3,4-c]pyrazole-5(1H)-carboxamide] here?
The Ki was no less than 500 nM.

What about the inhibition in vivo at 1 % [1] of the same compound?
Its inhibition in vivo at 1 % is no less than 50%.

What about the Ki (CDK2) of the same compound?
Its Ki is no less than 1000 nM.

What does the source list for `COC(C(=O)N1Cc2c(NC(=O)C3([Si](C)(C)C)CCC3)n[nH]c2C1(C)C)c1cccs1` (stereo not shown) [IV-1546, N-{5-[2-Methoxy-2-(thiophen-2-yl)acetyl]-6,6-dimethyl-1,4,5,6-tetrahydropyrrolo[3,4-c]pyrazol-3-yl}-1-(trimethylsilyl)cyclobutanecarboxamide]?
Ki (PAK4): ≥ 500 nM; inhibition in vivo at 0.01 % [1]: ≥ 50%

`CC(C)(CO)C(NC(=O)N1Cc2c(NC(=O)C3([Si](C)(C)C)CCC3)n[nH]c2C1(C)C)c1ccc(F)cc1` (stereo not shown) [IV-946, N-[1-(4-Fluorophenyl)-3-hydroxy-2,2-dimethylpropyl]-6,6-dimethyl-3-[1-(trimethylsilyl)cyclobutanecarboxamido]-4,6-dihydropyrrolo[3,4-c]pyrazole-5(1H)-carboxamide] was tested. Which Ki (PAK4) did it give?
Its Ki is no less than 500 nM.

And the inhibition in vivo at 0.01 % [1]?
Its inhibition in vivo at 0.01 % is no less than 50%.

And the Ki (CDK2)?
Its Ki is no less than 1000 nM.

How did the Ki (PAK4) turn out when `CC1(C)c2[nH]nc(NC(=O)C3([Si](C)(C)C)CCC3)c2CN1C(=O)[C@H](OC(F)(F)F)c1ccccc1` [IV-1184, (R)—N-{6,6-Dimethyl-5-[2-phenyl-2-(trifluoromethoxy)acetyl]-1,4,5,6-tetrahydropyrrolo[3,4-c]pyrazol-3-yl}-1-(trimethylsilyl)cyclobutanecarboxamide] was run?
The Ki was no less than 500 nM.

What about the inhibition in vivo at 0.01 % [1] of the same compound?
The inhibition in vivo at 0.01 % was no less than 50%.

And the Ki (CDK2)?
The Ki was no less than 1000 nM.

How did the Ki (PAK4) turn out when `CC(C)(O)C[C@@H](NC(=O)N1Cc2c(NC(=O)C3([Si](C)(C)C)CCC3)n[nH]c2C1(C)C)c1ccccc1` [IV-299, (R)—N-(3-Hydroxy-3-methyl-1-phenylbutyl)-6,6-dimethyl-3-[1-(trimethylsilyl)cyclobutanecarboxamido]-4,6-dihydropyrrolo[3,4-c]pyrazole-5(1H)-carboxamide] was run?
Its Ki is no less than 500 nM.

What about the inhibition in vivo at 0.01 % [1] of the same compound?
The inhibition in vivo at 0.01 % was no less than 50%.

And the Ki (CDK2)?
The Ki was no less than 1000 nM.

`CC1(C)c2[nH]nc(NC(=O)C3([Si](C)(C)C)CCC3)c2CN1C(=O)[C@H](OC1CC1)c1ccccc1` [IV-1208, (R)—N-[5-(2-Cyclopropoxy-2-phenylacetyl)-6,6-dimethyl-1,4,5,6-tetrahydropyrrolo[3,4-c]pyrazol-3-yl]-1-(trimethylsilyl)cyclobutanecarboxamide] was tested. Which Ki (PAK4) did it give?
The Ki was no less than 500 nM.

And the inhibition in vivo at 0.01 % [1]?
Its inhibition in vivo at 0.01 % is no less than 50%.

`CC1(C)c2[nH]nc(NC(=O)C3([Si](C)(C)C)CCC3)c2CN1C(=O)NC(c1ccccc1)C1(CO)CCC1` (stereo not shown) [IV-718, N-{[1-(Hydroxymethyl)cyclobutyl](phenyl)methyl}-6,6-dimethyl-3-[1-(trimethylsilyl)cyclobutanecarboxamido]-4,6-dihydropyrrolo[3,4-c]pyrazole-5(1H)-carboxamide] was tested. Which Ki (PAK4) did it give?
The Ki was no less than 500 nM.

And the inhibition in vivo at 0.01 % [1]?
The inhibition in vivo at 0.01 % was no less than 50%.

What about the Ki (CDK2) of the same compound?
Its Ki is no less than 1000 nM.

For `COC(C(=O)N1Cc2c(NC(=O)C3([Si](C)(C)C)CCC3)n[nH]c2C1(C)C)c1cccc(F)c1` (stereo not shown) [IV-1404, N-{5-[2-(3-Fluorophenyl)-2-methoxyacetyl]-6,6-dimethyl-1,4,5,6-tetrahydropyrrolo[3,4-c]pyrazol-3-yl}-1-(trimethylsilyl)cyclobutanecarboxamide], which Ki (PAK4) is on record?
Its Ki is no less than 500 nM.

What about the inhibition in vivo at 0.01 % [1] of the same compound?
The inhibition in vivo at 0.01 % was no less than 50%.

`CC(C)(O)C[C@@H](NC(=O)N1Cc2c(NC(=O)C3([Si](C)(C)C)CCC3)n[nH]c2C1(C)C)c1cccc(F)c1` [IV-911, (R)—N-[1-(3-Fluorophenyl)-3-hydroxy-3-methylbutyl]-6,6-dimethyl-3-[1-(trimethylsilyl)cyclobutanecarboxamido]-4,6-dihydropyrrolo[3,4-c]pyrazole-5(1H)-carboxamide] was tested. Which Ki (PAK4) did it give?
The Ki was no less than 500 nM.

What about the inhibition in vivo at 0.01 % [1] of the same compound?
Its inhibition in vivo at 0.01 % is no less than 50%.

What about the Ki (CDK2) of the same compound?
Its Ki is no less than 1000 nM.

Which Ki (PAK4) does the source give for `CC1(C)c2[nH]nc(NC(=O)C3([Si](C)(C)C)CCC3)c2CN1C(=O)N[C@H](CC1(O)CC1)c1ccccc1` [IV-743, (R)—N-[2-(1-Hydroxycyclopropyl)-1-phenylethyl]-6,6-dimethyl-3-[1-(trimethylsilyl)cyclobutanecarboxamido]-4,6-dihydropyrrolo[3,4-c]pyrazole-5(1H)-carboxamide] here?
Its Ki is no less than 500 nM.

What about the inhibition in vivo at 0.01 % [1] of the same compound?
Its inhibition in vivo at 0.01 % is no less than 50%.

And the Ki (CDK2)?
Its Ki is no less than 1000 nM.

`CC(C)(CO)C(NC(=O)N1Cc2c(NC(=O)C3([Si](C)(C)C)CCC3)n[nH]c2C1(C)C)c1cccc(F)c1` (stereo not shown) [IV-918, N-[1-(3-Fluorophenyl)-3-hydroxy-2,2-dimethylpropyl]-6,6-dimethyl-3-[1-(trimethylsilyl)cyclobutanecarboxamido]-4,6-dihydropyrrolo[3,4-c]pyrazole-5(1H)-carboxamide] was tested. Which Ki (PAK4) did it give?
Its Ki is no less than 500 nM.

And the inhibition in vivo at 0.01 % [1]?
The inhibition in vivo at 0.01 % was no less than 50%.

How did the inhibition in vivo at 0.01 % [1] turn out when `CCCO[C@@H](C(=O)N1Cc2c(NC(=O)C3([Si](C)(C)C)CCC3)n[nH]c2C1(C)C)c1ccccc1` [IV-1196, (R)—N-[6,6-Dimethyl-5-(2-phenyl-2-propoxyacetyl)-1,4,5,6-tetrahydropyrrolo[3,4-c]pyrazol-3-yl]-1-(trimethylsilyl)cyclobutanecarboxamide] was run?
Its inhibition in vivo at 0.01 % is no less than 50%.

What about the Ki (CDK2) of the same compound?
Its Ki is no less than 1000 nM.

With `CC(C)(O)C[C@@H](NC(=O)N1Cc2c(NC(=O)C3([Si](C)(C)C)CCC3)n[nH]c2C1(C)C)c1ccc(F)cc1` [IV-939, (R)—N-[1-(4-Fluorophenyl)-3-hydroxy-3-methylbutyl]-6,6-dimethyl-3-[1-(trimethylsilyl)cyclobutanecarboxamido]-4,6-dihydropyrrolo[3,4-c]pyrazole-5(1H)-carboxamide] as the compound, how does the inhibition in vivo at 0.01 % [1] read?
The inhibition in vivo at 0.01 % was no less than 50%.

What about the Ki (CDK2) of the same compound?
The Ki was no less than 1000 nM.

Which results are given for `COC[C@@H](NC(=O)N1Cc2c(NC(=O)C3([Si](C)(C)C)CCC3)n[nH]c2C1(C)C)c1ccccc1` [IV-123, (S)—N-(2-Methoxy-1-phenylethyl)-6,6-dimethyl-3-[1-(trimethylsilyl)cyclobutanecarboxamido]-4,6-dihydropyrrolo[3,4-c]pyrazole-5(1H)-carboxamide]?
Ki (PAK4): ≥ 500 nM; inhibition in vivo at 1 % [1]: ≥ 50%; Ki (CDK2): ≥ 1000 nM

How did the Ki (PAK4) turn out when `CC(C)O[C@@H](C(=O)N1Cc2c(NC(=O)C3([Si](C)(C)C)CCC3)n[nH]c2C1(C)C)c1ccccc1` [IV-1204, (R)—N-[5-(2-Isopropoxy-2-phenylacetyl)-6,6-dimethyl-1,4,5,6-tetrahydropyrrolo[3,4-c]pyrazol-3-yl]-1-(trimethylsilyl)cyclobutanecarboxamide] was run?
The Ki was no less than 500 nM.

And the inhibition in vivo at 0.01 % [1]?
Its inhibition in vivo at 0.01 % is no less than 50%.

What about the Ki (CDK2) of the same compound?
The Ki was no less than 1000 nM.
